Test results published in patent US12102709B2, “Anti-obesity agent, anti-dementia agent, deodorant, anti-aging agent, anti-glycation agent, anti-type I allergy agent, hypotensive agent, flavor improving agent, muscle enhancing agent, and bone metabolism improving agent” (Mitsui Sugar Co., Ltd., priority 2018, dated 2024).

Legend:
[1] = test system: C2C12 cells; assay: Mitochondrial activation test (amount of mitochondria per cell); type: cell-based, mouse; settings: Table 24; positive control; 48 hours; Comparative Example i1-4 = 100%
Method: (Cells) • Mouse Myoblasts C2C12 Cells (ATCC, CRL-1772) (Culture Mediums) • Growth culture medium composition: DMEM culture medium, 10% FBS, antibiotics added • Differentiation culture medium composition: DMEM culture medium, 0.5% FBS, antibiotics added C2C12 cells were cultivated using a growth culture medium in a T-75 flask (75 cm^2 U-shaped canted neck cell culture flask, commercially available from Corning Co., Ltd.). The T-75 flask was put into a CO2 incubator (5% CO2, 37° C., wet) and the C2C12 cells were cultured. The culture medium was replaced every other day, and when an 80% confluence was reached, the cells were collected and used for the test. Here, in the following test, regarding a well plate for culturing C2C12 cells, a plate coated with gelatin according to the following coating method was used. […] Then, after the culture supernatant was removed, a differentiation culture medium containing 5 μg/mL Hoechst (reagent for nuclear staining) and 500 nM MitoTracker (mitochondria staining reagent) was added to the well plate, and the fluorescence intensity was measured by the same method as in Test Example i1-1. The amount of mitochondria per cell was calculated by dividing the fluorescence intensity of the differentiation culture medium containing MitoTracker by the fluorescence intensity of the differentiation culture medium containing Hoechst. […]

[2] = test system: C2C12 cells; assay: Mitochondrial activation test (activity per cell); type: cell-based, mouse; settings: resveratrol 50 μM, 1% (v/v) ethanol; 48 hours; Comparative Example i1-2 = 100%
Method: (Cells) • Mouse Myoblasts C2C12 Cells (ATCC, CRL-1772) (Culture Mediums) • Growth culture medium composition: DMEM culture medium, 10% FBS, antibiotics added • Differentiation culture medium composition: DMEM culture medium, 0.5% FBS, antibiotics added C2C12 cells were cultivated using a growth culture medium in a T-75 flask (75 cm^2 U-shaped canted neck cell culture flask, commercially available from Corning Co., Ltd.). The T-75 flask was put into a CO2 incubator (5% CO2, 37° C., wet) and the C2C12 cells were cultured. The culture medium was replaced every other day, and when an 80% confluence was reached, the cells were collected and used for the test. […] Pre-cultured cells were seeded in a 96-well plate for fluorescence observation (optical bottom plate, commercially available from Nunc) at 4×10^4 cells/0.1 mL/well using a growth culture medium. […] Then, the fluorescence intensity was measured with a fluorescent plate reader. The mitochondrial activity per cell was calculated by dividing the fluorescence intensity of the differentiation culture medium containing rhodamine by the fluorescence intensity of the differentiation culture medium containing Hoechst. […] In addition, the relative values (%) in the test samples of Examples i1-4 to i1-6 and Positive Control it when the mitochondrial activity in the test sample of Comparative Example i1-2 was set as 100% were determined.

[3] = AGEs crosslinking cutting test; type: biochemical; settings: PTB 5 mmol/L
Method: Next, according to the AGEs crosslinking cutting test, the AGEs decomposition activity of the bagasse decomposition extract (the extract A) was evaluated. […] PPD) having an α-diketone structure was used as a model substrate, which is a known method (for example, Glycative Stress Research 2015, Vol. 2 (No. 2), pp. 58-66). The extract A as a bagasse decomposition extract was dissolved in distill water to a concentration of 20 mg/mL to prepare a test sample. The above prepared sample was added to a reaction solution containing a 0.16 mol/L phosphate buffer solution (pH 7.4), and a […] PPD composition to a concentration of 1/2 (10 mg/mL) and incubated at 37° C. for 8 hours. […] The amount of benzoic acid in the supernatant was analyzed through reversed phase HPLC. The amount of benzoic acid in the reaction solution was determined by subtracting the amount of benzoic acid in the sample that was separately measured. Since 1 mol of PPD produced 1 mol of benzoic acid, the crosslinking cutting rate was calculated according to the following formula. […] Then, the reaction solution was centrifuged at 20° C. and 3,000×g, for 10 minutes, and the amount of benzoic acid in the supernatant was analyzed through reversed phase HPLC. The amount of benzoic acid in the reaction solution was determined by subtracting the amount of benzoic acid in the sample that was separately measured. […]

[4] = test system: 3T3-L1 cells; assay: 3T3-L1 cell lipid accumulation inhibition test; type: cell-based, mouse; settings: berberine chloride final concentration 1 μg/mL; untreated control = 100%
Method: The extract A was dissolved in water to prepare 50 mg/mL of a test solution stock solution. The test solution stock solution was diluted with a DMEM culture medium to prepare a test solution with a specimen concentration of 2,000 μg/mL.
3T3-L1 cells (National Institute of Biomedical Innovation, Health and Nutrition) as mouse adipose progenitor cells were seeded on a 24-well plate, and cultured in a DMEM culture medium containing a newborn calf serum (10 vol %, with respect to a total amount of the culture medium) and a penicillin-streptomycin solution (1 vol %, with respect to a total amount of the culture medium) for 4 days. […]
After the lipid droplets were observed, a pigment extract solution contained in the Adipogenesis Assay Kit was added to samples of Example a1, Comparative Example a1-1, and Positive Control a1-1, and Oil Red O incorporated into the lipid droplets was extracted. The absorbance of the extracted Oil Red O at 520 nm was measured using a microplate reader (SpectraMax M2e, commercially available from Molecular Devices, LLC.).
The lipid accumulation rate was calculated from the absorbance of respective samples according to the following formula. […]

[5] = test system: human osteoclast precursor cells; assay: Osteoclast differentiation inhibition test 1 (TRAP staining); type: cell-based; settings: 1,000 μM melatonin; 7 days; FIG. 11
Method: (Cells) • Human osteoclast precursor cells (commercially available from Cosmo Bio Co., Ltd. PT-267 Lot. RBW-F-OSH-HBV) Using the above culture medium, 250 μg/mL of a solution containing the extract A was prepared, and this was used as a test solution (Example j2-1). Human osteoclast precursor cells were seeded in a 96-well culture plate at about 0.3×10^5 cells/50 μl/well. A test solution was added thereto at 50 μL/well and culturing was performed under conditions of 37° C. and 5% CO2 for 7 days. The cultured cells were stained with TRAP using a TRAP staining kit, and observed under a microscope. In the same manner, the same test was performed on a culture medium to which no test solution was added (Comparative Example j2-1) and a culture medium containing 1,000 μM melatonin (Positive Control j2) as a positive control.

[6] = test system: human osteoclast precursor cells; assay: Osteoclast differentiation inhibition test 2 (proportion of mononuclear cells); type: cell-based; settings: 7 days
Method: It is known that, when osteoclasts mature, cells fuse each other and become multinucleated. Therefore, the proportion of mononuclear cells of osteoclasts was measured, and an osteoclast differentiation inhibition effect was confirmed. Under the same culture conditions as in Example j2-1, human osteoclast precursor cells were cultured using a culture medium containing the extract A with a concentration shown in Table 27 (Example j3-1), a culture medium containing no extract (Comparative Example j3-1), or a culture medium containing melatonin with a concentration shown in Table 27 (Positive Controls j3-1 to j3-2) as positive controls. The proportion of mononuclear cells (%) was calculated by dividing the number of mononuclear cells in the field of view of the microscope by the total number of cells in the field of view.

## Oc1ccc(C=Cc2cc(O)cc(O)c2)cc1 [Positive Control i1-1, resveratrol]
[1]
  Amount of mitochondria per cell (relative value, %): 178.4 ± 9.6%
[2]
  Mitochondrial activity per cell (relative value, %): 178.4 ± 9.6%

## O=C(C[n+]1ccsc1)c1ccccc1.[Br-] [PTB, N-phenacylthiazoliumbromide]
[3]; Test Example e2
  Crosslinking cutting rate: 20.1%
[3]; Test Example e4
  Crosslinking cutting rate: 22.4%

## COc1ccc2cc3[n+](cc2c1OC)CCc1cc2c(cc1-3)OCO2 [Positive Control a1-1, berberine chloride]
[4]
  Lipid accumulation rate: 19±1.0%

## COc1ccc2[nH]cc(CCNC(C)=O)c2c1 [Positive Control j3-1, melatonin]
[5]
  Microscopic observation of TRAP-stained osteoclasts: a decrease in the number of osteoclasts was also observed
[6]; melatonin 500 μM
  Proportion of mononuclear cells (%) (average N = 3): 88%
[6]; melatonin 1,000 μM
  Proportion of mononuclear cells (%) (average N = 3): 100%
